Test results from ChEMBL document CHEMBL4507299, “Data for DCP probe PF-04554878” (2021).
The source made the active and inactive calls.

Tests used:
[1] = molecular target: Protein-tyrosine kinase 2-beta (Homo sapiens, UniProt Q14289); experiment: Binding assay (PTK2B)
[2] = test system: Tyrosine-protein kinase ABL1 (Homo sapiens), P00519 [T315I]
[3] = molecular target: Activin receptor type-2A (Homo sapiens) (UniProt P27037)
[4] = molecular target: RAC-beta serine/threonine-protein kinase (Homo sapiens) (UniProt P31751)
[5] = molecular target: ALK tyrosine kinase receptor (Homo sapiens) (UniProt Q9UM73)
[6] = molecular target: BMP-2-inducible protein kinase (Homo sapiens) (UniProt Q9NSY1)
[7] = molecular target: Serine/threonine-protein kinase DCLK1 (Homo sapiens) (UniProt O15075)
[8] = molecular target: Mitogen-activated protein kinase kinase kinase 12 (Homo sapiens) (UniProt Q12852)
[9] = molecular target: Receptor tyrosine-protein kinase erbB-2 (Homo sapiens) (UniProt P04626)
[10] = molecular target: Receptor tyrosine-protein kinase erbB-3 (Homo sapiens) (UniProt P21860)
[11] = molecular target: Hormonally up-regulated neu tumor-associated kinase (Homo sapiens) (UniProt P57058)
[12] = molecular target: Serine/threonine-protein kinase LATS2 (Homo sapiens) (UniProt Q9NRM7)
[13] = molecular target: Serine/threonine-protein kinase 10 (Homo sapiens) (UniProt O94804)
[14] = molecular target: Mitogen-activated protein kinase kinase kinase 13 (Homo sapiens) (UniProt O43283)
[15] = molecular target: Mitogen-activated protein kinase kinase kinase 15 (Homo sapiens) (UniProt Q6ZN16)
[16] = molecular target: Mitogen-activated protein kinase kinase kinase kinase 3 (Homo sapiens) (UniProt Q8IVH8)
Sequence of Mitogen-activated protein kinase kinase kinase kinase 3 (Homo sapiens) (Q8IVH8 whole entry): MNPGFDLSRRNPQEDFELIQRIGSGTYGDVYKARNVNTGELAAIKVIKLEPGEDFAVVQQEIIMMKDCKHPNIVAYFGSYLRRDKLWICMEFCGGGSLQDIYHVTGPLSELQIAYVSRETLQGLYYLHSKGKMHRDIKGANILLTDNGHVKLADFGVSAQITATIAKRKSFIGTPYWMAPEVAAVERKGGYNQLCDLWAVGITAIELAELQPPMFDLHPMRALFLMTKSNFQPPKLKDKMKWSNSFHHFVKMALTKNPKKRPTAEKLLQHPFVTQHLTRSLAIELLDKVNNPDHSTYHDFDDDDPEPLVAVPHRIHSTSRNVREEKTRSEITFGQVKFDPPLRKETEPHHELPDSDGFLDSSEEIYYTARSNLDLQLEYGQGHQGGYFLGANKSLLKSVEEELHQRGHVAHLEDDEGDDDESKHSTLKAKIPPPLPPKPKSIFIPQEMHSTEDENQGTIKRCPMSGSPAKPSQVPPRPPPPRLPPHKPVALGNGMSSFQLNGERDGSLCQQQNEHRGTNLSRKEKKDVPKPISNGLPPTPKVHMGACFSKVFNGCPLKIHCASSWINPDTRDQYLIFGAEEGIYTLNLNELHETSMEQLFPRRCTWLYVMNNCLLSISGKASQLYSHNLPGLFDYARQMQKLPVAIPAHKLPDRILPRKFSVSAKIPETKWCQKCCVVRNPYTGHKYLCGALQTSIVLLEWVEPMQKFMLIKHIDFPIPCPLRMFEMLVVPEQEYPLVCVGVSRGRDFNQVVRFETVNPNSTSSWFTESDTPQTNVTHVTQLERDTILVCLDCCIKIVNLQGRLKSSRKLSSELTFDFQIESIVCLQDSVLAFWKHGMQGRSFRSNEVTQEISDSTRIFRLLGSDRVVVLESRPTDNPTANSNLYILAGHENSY

[17] = molecular target: Macrophage-stimulating protein receptor (Homo sapiens) (UniProt Q04912)
[18] = molecular target: Myosin light chain kinase, smooth muscle (Homo sapiens) (UniProt Q15746)
[19] = molecular target: Serine/threonine-protein kinase Nek1 (Homo sapiens) (UniProt Q96PY6)
[20] = molecular target: Serine/threonine-protein kinase Nek5 (Homo sapiens) (UniProt Q6P3R8)
Sequence of Serine/threonine-protein kinase Nek5 (Homo sapiens) (Q6P3R8 whole entry): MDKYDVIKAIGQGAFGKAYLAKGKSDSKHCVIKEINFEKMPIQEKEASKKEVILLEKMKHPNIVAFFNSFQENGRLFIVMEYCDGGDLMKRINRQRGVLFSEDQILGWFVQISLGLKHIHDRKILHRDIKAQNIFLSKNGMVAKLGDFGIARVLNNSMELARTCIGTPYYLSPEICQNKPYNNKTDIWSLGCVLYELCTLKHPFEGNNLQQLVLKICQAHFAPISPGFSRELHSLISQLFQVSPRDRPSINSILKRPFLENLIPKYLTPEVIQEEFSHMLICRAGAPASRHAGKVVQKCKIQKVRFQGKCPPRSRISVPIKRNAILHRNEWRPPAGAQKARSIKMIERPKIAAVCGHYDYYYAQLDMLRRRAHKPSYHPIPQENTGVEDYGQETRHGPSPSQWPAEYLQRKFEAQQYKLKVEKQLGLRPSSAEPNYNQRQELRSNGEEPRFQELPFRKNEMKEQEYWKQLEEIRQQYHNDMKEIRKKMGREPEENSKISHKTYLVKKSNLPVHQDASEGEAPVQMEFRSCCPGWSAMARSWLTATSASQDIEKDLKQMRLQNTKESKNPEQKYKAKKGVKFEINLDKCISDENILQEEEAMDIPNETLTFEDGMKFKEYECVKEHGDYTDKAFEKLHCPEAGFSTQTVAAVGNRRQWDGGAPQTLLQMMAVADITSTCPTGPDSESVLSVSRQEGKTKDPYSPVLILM

[21] = molecular target: Platelet-derived growth factor receptor alpha (Homo sapiens) (UniProt P16234)
[22] = molecular target: Platelet-derived growth factor receptor beta (Homo sapiens) (UniProt P09619)
[23] = molecular target: Phosphorylase b kinase gamma catalytic chain, skeletal muscle/heart isoform (Homo sapiens) (UniProt Q16816)
Sequence of Phosphorylase b kinase gamma catalytic chain, skeletal muscle/heart isoform (Homo sapiens) (Q16816 whole entry, looked up, canonical isoform): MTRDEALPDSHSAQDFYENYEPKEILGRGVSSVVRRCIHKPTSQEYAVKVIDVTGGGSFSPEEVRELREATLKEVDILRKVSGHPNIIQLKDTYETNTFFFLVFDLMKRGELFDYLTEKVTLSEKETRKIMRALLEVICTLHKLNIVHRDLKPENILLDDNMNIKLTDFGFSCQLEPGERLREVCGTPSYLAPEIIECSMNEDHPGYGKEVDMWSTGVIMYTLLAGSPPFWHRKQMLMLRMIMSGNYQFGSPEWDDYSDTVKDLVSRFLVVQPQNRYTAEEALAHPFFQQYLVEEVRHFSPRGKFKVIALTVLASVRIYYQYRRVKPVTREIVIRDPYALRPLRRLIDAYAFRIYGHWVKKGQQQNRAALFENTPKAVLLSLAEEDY

[24] = molecular target: Phosphorylase b kinase regulatory subunit alpha, liver isoform (Homo sapiens) (UniProt P46019)
[25] = test system: Phosphatidylinositol 4,5-bisphosphate 3-kinase catalytic subunit alpha isoform (Homo sapiens), P42336 [E542K]
[26] = test system: Phosphatidylinositol 4,5-bisphosphate 3-kinase catalytic subunit alpha isoform (Homo sapiens), P42336 [I800L]
[27] = test system: Phosphatidylinositol 4,5-bisphosphate 3-kinase catalytic subunit alpha isoform (Homo sapiens), P42336 [M1043I]
Sequence of Phosphatidylinositol 4,5-bisphosphate 3-kinase catalytic subunit alpha isoform (Homo sapiens), P42336 [M1043I] (P42336 whole entry M1043I, canonical isoform): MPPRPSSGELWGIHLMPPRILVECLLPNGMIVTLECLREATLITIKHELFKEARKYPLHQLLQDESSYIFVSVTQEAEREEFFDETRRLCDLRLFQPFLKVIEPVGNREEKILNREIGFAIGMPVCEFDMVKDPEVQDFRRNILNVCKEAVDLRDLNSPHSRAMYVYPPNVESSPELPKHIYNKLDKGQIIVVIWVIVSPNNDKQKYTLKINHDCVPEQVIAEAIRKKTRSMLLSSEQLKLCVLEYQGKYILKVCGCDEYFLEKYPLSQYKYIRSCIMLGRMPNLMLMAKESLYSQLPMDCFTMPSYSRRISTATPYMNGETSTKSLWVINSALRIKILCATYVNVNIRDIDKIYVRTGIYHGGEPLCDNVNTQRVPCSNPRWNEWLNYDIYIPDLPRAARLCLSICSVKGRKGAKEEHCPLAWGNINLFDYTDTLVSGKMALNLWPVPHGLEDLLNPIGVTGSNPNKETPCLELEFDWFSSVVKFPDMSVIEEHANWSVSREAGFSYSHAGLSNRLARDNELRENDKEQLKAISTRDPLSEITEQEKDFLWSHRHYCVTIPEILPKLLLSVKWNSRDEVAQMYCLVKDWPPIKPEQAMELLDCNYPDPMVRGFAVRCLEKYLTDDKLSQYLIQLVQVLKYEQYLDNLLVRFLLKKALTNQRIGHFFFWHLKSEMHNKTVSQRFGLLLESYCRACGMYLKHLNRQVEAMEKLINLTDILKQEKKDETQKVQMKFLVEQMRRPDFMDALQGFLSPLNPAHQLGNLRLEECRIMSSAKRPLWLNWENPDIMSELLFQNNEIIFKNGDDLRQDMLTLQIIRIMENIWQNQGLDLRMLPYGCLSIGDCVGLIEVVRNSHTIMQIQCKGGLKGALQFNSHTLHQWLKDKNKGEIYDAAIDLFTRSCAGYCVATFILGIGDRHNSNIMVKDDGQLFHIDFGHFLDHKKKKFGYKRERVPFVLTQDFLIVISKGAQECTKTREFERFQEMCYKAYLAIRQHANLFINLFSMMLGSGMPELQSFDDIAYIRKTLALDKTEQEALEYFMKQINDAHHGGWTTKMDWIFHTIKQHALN

[28] = test system: Phosphatidylinositol 4,5-bisphosphate 3-kinase catalytic subunit alpha isoform (Homo sapiens), P42336 [Q546K]
[29] = molecular target: Serine/threonine-protein kinase pim-2 (Homo sapiens) (UniProt Q9P1W9)
[30] = molecular target: Serine/threonine-protein kinase N1 (Homo sapiens) (UniProt Q16512)
[31] = molecular target: Protein kinase C theta type (Homo sapiens) (UniProt Q04759)
[32] = test system: Proto-oncogene tyrosine-protein kinase receptor Ret (Homo sapiens), P07949 [V804M]
[33] = molecular target: Serine/threonine-protein kinase RIO3 (Homo sapiens) (UniProt O14730)
[34] = molecular target: Ribosomal protein S6 kinase alpha-4 (Homo sapiens) (UniProt O75676)
[35] = molecular target: Ribosomal protein S6 kinase alpha-3 (Homo sapiens) (UniProt P51812)
[36] = molecular target: Ribosomal protein S6 kinase alpha-2 (Homo sapiens) (UniProt Q15349)
[37] = molecular target: Serine/threonine-protein kinase SIK1 (Homo sapiens) (UniProt P57059)
[38] = molecular target: STE20/SPS1-related proline-alanine-rich protein kinase (Homo sapiens) (UniProt Q9UEW8)
[39] = molecular target: Tyrosine-protein kinase SYK (Homo sapiens) (UniProt P43405)
[40] = molecular target: NT-3 growth factor receptor (Homo sapiens) (UniProt Q16288)
[41] = molecular target: Non-receptor tyrosine-protein kinase TYK2 (Homo sapiens) (UniProt P29597)
Sequence of Non-receptor tyrosine-protein kinase TYK2 (Homo sapiens) (P29597 whole entry): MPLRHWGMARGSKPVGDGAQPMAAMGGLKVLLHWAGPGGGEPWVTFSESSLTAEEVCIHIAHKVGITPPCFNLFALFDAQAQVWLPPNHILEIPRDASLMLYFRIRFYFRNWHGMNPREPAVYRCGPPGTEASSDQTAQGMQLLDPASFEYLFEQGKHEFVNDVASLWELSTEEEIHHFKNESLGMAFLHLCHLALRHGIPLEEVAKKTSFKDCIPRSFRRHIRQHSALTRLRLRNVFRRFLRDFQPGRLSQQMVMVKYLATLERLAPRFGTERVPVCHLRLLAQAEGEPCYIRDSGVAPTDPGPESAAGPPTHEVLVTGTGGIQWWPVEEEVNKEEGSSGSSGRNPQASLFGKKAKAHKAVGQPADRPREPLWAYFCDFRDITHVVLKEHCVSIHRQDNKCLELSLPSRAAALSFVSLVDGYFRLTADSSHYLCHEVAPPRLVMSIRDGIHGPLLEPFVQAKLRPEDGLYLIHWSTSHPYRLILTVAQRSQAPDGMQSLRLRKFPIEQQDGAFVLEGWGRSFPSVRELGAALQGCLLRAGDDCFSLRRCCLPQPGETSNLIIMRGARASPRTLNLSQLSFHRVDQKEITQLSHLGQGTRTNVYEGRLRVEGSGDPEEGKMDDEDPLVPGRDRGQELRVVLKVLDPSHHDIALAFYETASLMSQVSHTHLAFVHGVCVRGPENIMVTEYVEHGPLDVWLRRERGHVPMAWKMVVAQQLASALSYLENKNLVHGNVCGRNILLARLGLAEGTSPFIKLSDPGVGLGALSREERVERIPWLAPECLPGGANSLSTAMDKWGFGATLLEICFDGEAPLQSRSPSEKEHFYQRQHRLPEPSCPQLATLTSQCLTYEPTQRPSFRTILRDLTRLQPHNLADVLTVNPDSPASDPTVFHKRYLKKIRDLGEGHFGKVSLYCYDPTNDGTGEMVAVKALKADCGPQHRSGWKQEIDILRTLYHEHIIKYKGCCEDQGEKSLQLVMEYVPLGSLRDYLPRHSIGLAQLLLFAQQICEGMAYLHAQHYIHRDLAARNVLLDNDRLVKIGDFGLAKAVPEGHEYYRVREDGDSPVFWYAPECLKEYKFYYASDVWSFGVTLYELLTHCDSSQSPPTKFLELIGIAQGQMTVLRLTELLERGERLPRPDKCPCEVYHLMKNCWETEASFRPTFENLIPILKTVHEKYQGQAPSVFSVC

[42] = molecular target: Serine/threonine-protein kinase WNK2 (Homo sapiens) (UniProt Q9Y3S1)
[43] = molecular target: Tyrosine-protein kinase Yes (Homo sapiens) (UniProt P07947)
Sequence of Tyrosine-protein kinase Yes (Homo sapiens) (P07947 2-543 limits assumed): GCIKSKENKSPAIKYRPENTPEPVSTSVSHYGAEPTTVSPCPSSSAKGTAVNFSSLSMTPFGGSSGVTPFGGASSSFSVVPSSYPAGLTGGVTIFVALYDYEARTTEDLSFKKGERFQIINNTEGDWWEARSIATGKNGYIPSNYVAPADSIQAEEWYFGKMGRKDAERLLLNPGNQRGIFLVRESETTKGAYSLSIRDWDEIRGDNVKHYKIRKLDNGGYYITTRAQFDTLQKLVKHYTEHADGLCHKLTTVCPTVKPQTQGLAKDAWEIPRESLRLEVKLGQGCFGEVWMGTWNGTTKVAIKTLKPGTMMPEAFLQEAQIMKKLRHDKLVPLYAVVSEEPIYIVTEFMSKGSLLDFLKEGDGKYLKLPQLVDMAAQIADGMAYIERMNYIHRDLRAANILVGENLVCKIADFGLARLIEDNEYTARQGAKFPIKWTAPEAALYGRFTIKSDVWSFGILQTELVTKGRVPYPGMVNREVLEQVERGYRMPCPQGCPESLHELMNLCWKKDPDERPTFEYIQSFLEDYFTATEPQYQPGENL

[44] = molecular target: Histamine H3 receptor (Homo sapiens) (UniProt Q9Y5N1); details: Compound concentration 10.0 uM
[45] = molecular target: Alpha-2A adrenergic receptor (Homo sapiens) (UniProt P08913); details: Compound concentration 10.0 uM
[46] = Compound concentration 100.0 nM
[47] = Compound concentration 1000.0 nM

CNC(=O)c1ccc(Nc2ncc(C(F)(F)F)c(NCc3nccnc3N(C)S(C)(=O)=O)n2)cc1 [DEFACTINIB]
active: IC50 [1] 0.2 nM | residual activity [2, 46] 45% | residual activity [25, 46] 49% | residual activity [28, 46] 17% | residual activity [32, 46] 30% | residual activity [40, 46] 41% | residual activity [41, 46] 27%
inactive: residual activity [3, 46] 90% | residual activity [4, 46] 77% | residual activity [5, 46] 58% | residual activity [6, 46] 81% | residual activity [7, 46] 99% | residual activity [8, 46] 83% | residual activity [9, 46] 100% | residual activity [10, 46] 93% | residual activity [11, 46] 100% | residual activity [12, 46] 65% | residual activity [13, 46] 77% | residual activity [14, 46] 98% | residual activity [15, 46] 95% | residual activity [16, 46] 95% | residual activity [17, 46] 100% | residual activity [18, 46] 75% | residual activity [19, 46] 75% | residual activity [20, 46] 100% | residual activity [21, 46] 77% | residual activity [22, 46] 83% | residual activity [23, 46] 100% | residual activity [24, 46] 75% | residual activity [26, 46] 100% | residual activity [27, 46] 100% | residual activity [29, 46] 100% | residual activity [30, 46] 100% | residual activity [31, 46] 89% | residual activity [33, 46] 55% | residual activity [34, 46] 85% | residual activity [35, 46] 100% | residual activity [36, 46] 77% | residual activity [37, 46] 90% | residual activity [38, 46] 100% | residual activity [39, 46] 66% | residual activity [42, 46] 94% | residual activity [43, 46] 100% | inhibition [44] -7.94% | inhibition [45] 9.61%

CN(c1ccnc(CNc2nc(Nc3ccc4c(c3)CC(=O)N4)ncc2C(F)(F)F)n1)S(C)(=O)=O [PF-00911705]
721 nM (not active): IC50 [1]
inactive: residual activity [3, 47] 100% | residual activity [4, 47] 82% | residual activity [5, 47] 81% | residual activity [7, 47] 57% | residual activity [9, 47] 100% | residual activity [10, 47] 78% | residual activity [11, 47] 100% | residual activity [13, 47] 100% | residual activity [15, 47] 92% | residual activity [16, 47] 87% | residual activity [17, 47] 72% | residual activity [18, 47] 71% | residual activity [19, 47] 51% | residual activity [20, 47] 63% | residual activity [21, 47] 58% | residual activity [22, 47] 69% | residual activity [23, 47] 76% | residual activity [24, 47] 63% | residual activity [25, 47] 100% | residual activity [26, 47] 84% | residual activity [27, 47] 95% | residual activity [28, 47] 93% | residual activity [29, 47] 100% | residual activity [31, 47] 55% | residual activity [34, 47] 81% | residual activity [35, 47] 85% | residual activity [36, 47] 57% | residual activity [37, 47] 76% | residual activity [38, 47] 100% | residual activity [43, 47] 77% | inhibition [44] 12.9% | inhibition [45] 0.4%
active: residual activity [2, 47] 11% | residual activity [6, 47] 2.3% | residual activity [8, 47] 48% | residual activity [12, 47] 42% | residual activity [14, 47] 0% | residual activity [30, 47] 43% | residual activity [32, 47] 31% | residual activity [33, 47] 8.5% | residual activity [39, 47] 5.7% | residual activity [40, 47] 45% | residual activity [41, 47] 27% | residual activity [42, 47] 22%
